Experimental data reported in patent US7452887B2, “Quinoline- and isoquinoline-based compounds exhibiting ATP-utilizing enzyme inhibitory activity, and compositions, and uses thereof” (Amphora Discovery Corporation, priority 2004, dated 2008).

How the values were obtained:
MAPKAPK2 = MAPKAPK2 (Homo sapiens, UniProt P49137); test: HTS ATP-utilizing enzyme assay, off-chip mobility-shift (Caliper HTS 250); format: biochemical; settings: test compound 10 μM, kinase listed = active (greater than six-sigma from the mean activity of inactive compounds)
Chain of MAPKAPK2 (P49137 whole entry): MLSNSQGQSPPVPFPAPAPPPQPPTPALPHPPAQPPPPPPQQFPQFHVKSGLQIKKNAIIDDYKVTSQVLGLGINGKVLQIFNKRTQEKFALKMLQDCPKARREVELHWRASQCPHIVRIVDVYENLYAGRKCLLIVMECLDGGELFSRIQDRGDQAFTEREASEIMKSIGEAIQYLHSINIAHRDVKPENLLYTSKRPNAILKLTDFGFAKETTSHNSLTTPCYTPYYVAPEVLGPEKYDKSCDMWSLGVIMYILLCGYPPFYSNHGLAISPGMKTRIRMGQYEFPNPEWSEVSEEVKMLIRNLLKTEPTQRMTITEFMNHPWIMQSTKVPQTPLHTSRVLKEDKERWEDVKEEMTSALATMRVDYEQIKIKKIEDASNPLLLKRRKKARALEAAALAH
Summary of the method: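 Phosphorylation of a peptide substrate was quantified by Caliper mobility-shift separation of substrate and product after 2.5 h at 20-22 °C, with compounds tested at 10 μM. Inhibition was normalized to EDTA-quenched (100%) and DMSO (0%) controls; six-sigma thresholds flagged actives.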

PRAK = target: T1, PRAK (Homo sapiens, UniProt Q8IW41); test: as above; format: biochemical; settings: test compound 10 μM, kinase listed = active (greater than six-sigma from the mean activity of inactive compounds)
T1 sequence (Q8IW41 1-473): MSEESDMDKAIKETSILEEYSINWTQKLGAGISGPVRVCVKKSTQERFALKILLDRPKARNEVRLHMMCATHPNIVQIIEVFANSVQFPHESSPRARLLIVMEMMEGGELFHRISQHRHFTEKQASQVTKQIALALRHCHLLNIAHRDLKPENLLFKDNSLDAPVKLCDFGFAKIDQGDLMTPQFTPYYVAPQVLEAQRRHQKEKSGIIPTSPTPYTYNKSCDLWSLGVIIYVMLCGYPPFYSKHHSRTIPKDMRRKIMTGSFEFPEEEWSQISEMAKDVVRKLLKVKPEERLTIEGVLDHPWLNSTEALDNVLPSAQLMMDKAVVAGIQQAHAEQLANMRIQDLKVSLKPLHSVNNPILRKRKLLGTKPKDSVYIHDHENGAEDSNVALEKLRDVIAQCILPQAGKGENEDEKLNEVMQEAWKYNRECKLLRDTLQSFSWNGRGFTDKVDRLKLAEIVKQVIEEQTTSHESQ
Source text: The following procedures describe the reagent and plate preparation for a HTS of an ATP-utilizing enzyme, such as a protein kinase, run in an off-chip mobility-shift assay format. The following provides an HTS protocol for running a protein kinase HTS screen on a Caliper HTS 250 microfluidics system. The following parameters are dependent on the protein kinase used and can be determined by one skilled in the art as part of a typical assay development process. For example, the peptide substrate used can be identified from the current literature, by screening a peptide library of potential protein kinase substrates, or by other applicable means accepted in the field.
The following table provides typical screen assay parameters appropriate for a Caliper HTS 250 microfluidics system.
The reagents and buffers listed in the following table are generally applicable for developing and running an HTS screen on a human protein kinase using the Caliper HTS 250 system.
The following reagents were prepared using the previously described buffers.
A 2× Master Buffer solution was prepared by combining 200 mL of 1 M HEPES, pH 7.5, 2 mL of 10% Triton X-100, 20 mL of 10% BSA, and 778 mL of H2O.
A 2.5× Substrate Buffer solution was prepared by combining 177.408 mL of 2× Master Buffer, 0.887 mL of 1 mM peptide-X, and 176.521 mL of H2O.
A 1.55× Termination Buffer solution was prepared by combining 762.05 mL of 2× Master Buffer, 95.1 mL of 0.5 M EDTA, and 666.94 mL of H2O.
A TCB Buffer solution was prepared by combining 125 mL of 2× Master Buffer, 10 mL of 0.5 M EDTA, 6.25 mL of 4% coating reagent, 1.01 mL of 100% DMSO, and 107.74 mL H2O.
A Dye Trough solution was prepared by combining 0.5 μL of peptide-X, and 2,999.5 μL of IX Master Buffer.
A 1.06× Assay Buffer solution was prepared by combining 205.15 mL of 2× Master Buffer, and 181.92 mL of H2O.
Assays to determine the kinase inhibitory activity of compounds of the present disclosure were performed using a Caliper HTS 250 microfluidics device, Greiner U-bottom assay plates, a Multidrop for transfer of reagents, and Biomek FX (AMNCBM03) software. Initially, 2.4 μL of a 1 mM solution of a test compound in 100% DMSO was added to a well of the Greiner U-bottom plate. A single Greiner U-bottom plate having 24×16 wells could include multiple test compounds. Next, […] of 1.06× Assay Buffer was added to each well of the assay plate. Using the Biomek FX, 10 μL of 0.5 M EDTA was added by the span-8 to wells, indicated as 100% Control and 2.4 μL of 100% DMSO was added by the span-8 to wells, indicated as 0% Control. Using the Multidrop, 10 μL of 2.5× Enzyme Buffer, followed by 10 μL of 2.5× Substrate Buffer was added to each well of the assay plate. The total reaction volume in each well was 25 μL, and the concentration of the test compound was 10 μM. The assay plate was incubated for 2.5 hrs at 20° C. to 22° C. After the incubation period, using the Multidrop, 45 μL of 1.55× Termination Buffer was added to each well of the assay plate to stop the reaction. The inhibition of the ATP-utilizing enzyme, such as a particular protein kinase, was determined by measuring the ratio of the peptide substrate to phosphorylated product for each well of the assay plate using the Caliper HTS 250 system.
The use of six-sigma statistical limits represents a conservative method for declaring potential hits among targets. The six-sigma activity, as well as the mean population activity, can be different for each target enzyme. This method has an expected false positive rate, from an in-control measurement process, of one in one million.

Compound	Activity (MAPKAPK2)	Activity (PRAK)
CC(C)c1cccc(-c2ccc3nccc(Nc4ccc(N5CCN(C)CC5)cc4)c3c2)c1 [6-(3-isopropylphenyl)-N-(4-(4-methylpiperazin-1-yl)phenyl)quinolin-4-amine]	MAPKAPK2	PRAK
CN1CCN(c2ccc(Nc3ccnc4ccc(-c5cccc(C(F)(F)F)c5)cc34)cc2)CC1 [N-(4-(4-methylpiperazin-1-yl)phenyl)-6-(3-(trifluoromethyl)phenyl)quinolin-4-amine]	–	PRAK
CCCN1CCN(c2ccc(Nc3ccnc4ccc(-c5ccc(C#N)cc5)cc34)cc2)CC1 [4-(4-(4-(4-propylpiperazin-1-yl)phenylamino)quinolin-6-yl)benzonitrile]	MAPKAPK2	PRAK
CSc1ccc(-c2ccc3nccc(Nc4ccc(N5CCN(C)CC5)cc4)c3c2)cc1 [N-(4-(4-methylpiperazin-1-yl)phenyl)-6-(4-(methylthio)phenyl)quinolin-4-amine]	–	PRAK
OCCCN1CCN(c2ccc(Nc3ccnc4ccc(-c5ccccc5)cc34)cc2)CC1 [3-(4-(4-(6-phenylquinolin-4-ylamino)phenyl)piperazin-1-yl)propan-1-ol]	MAPKAPK2	PRAK
CCCN1CCN(c2ccc(Nc3ccnc4ccc(-c5ccccc5)cc34)cc2)CC1 [6-phenyl-N-(4-(4-propylpiperazin-1-yl)phenyl)quinolin-4-amine]	MAPKAPK2	PRAK
CN1CCN(c2ccc(Nc3ccnc4ccc(-c5cccc(OC(F)(F)F)c5)cc34)cc2)CC1 [N-(4-(4-methylpiperazin-1-yl)phenyl)-6-(3-(trifluoromethoxy)phenyl)quinolin-4-amine]	MAPKAPK2	PRAK
CN1CCN(c2ccc(Nc3ccnc4ccc(-c5cccc(F)c5)cc34)cc2)CC1 [6-(3-fluorophenyl)-N-(4-(4-methylpiperazin-1-yl)phenyl)quinolin-4-amine]	MAPKAPK2	PRAK
CCCCc1ccc(-c2ccc3nccc(Nc4ccc(N5CCN(C)CC5)cc4)c3c2)cc1 [6-(4-butylphenyl)-N-(4-(4-methylpiperazin-1-yl)phenyl)quinolin-4-amine]	MAPKAPK2	PRAK
CN1CCN(c2ccc(Nc3ccnc4ccc(-c5cc(F)cc(F)c5)cc34)cc2)CC1 [6-(3,5-difluorophenyl)-N-(4-(4-methylpiperazin-1-yl)phenyl)quinolin-4-amine]	MAPKAPK2	PRAK
CN(C)C1CCN(c2ccc(Nc3ccnc4ccc(-c5ccc(C#N)cc5)cc34)cc2)C1 (stereo not drawn) [4-(4-(4-(3-(dimethylamino)pyrrolidin-1-yl)phenylamino)quinolin-6-yl)benzonitrile]	–	PRAK
CCN1CCN(c2ccc(Nc3ccnc4ccc(-c5ccccc5)cc34)cc2)CC1 [N-(4-(4-ethylpiperazin-1-yl)phenyl)-6-phenylquinolin-4-amine]	MAPKAPK2	PRAK
CN1CCN(c2ccc(Nc3ccnc4ccc(-c5ccc(F)c(F)c5)cc34)cc2)CC1 [6-(3,4-difluorophenyl)-N-(4-(4-methylpiperazin-1-yl)phenyl)quinolin-4-amine]	MAPKAPK2	PRAK
CN1CCN(c2ccc(Nc3ccnc4ccc(-c5ccsc5)cc34)cc2)CC1 [N-(4-(4-methylpiperazin-1-yl)phenyl)-6-(thiophen-3-yl)quinolin-4-amine]	MAPKAPK2	PRAK
CN1CCN(c2ccc(Nc3ccnc4ccc(-c5ccccc5)cc34)cc2)CC1 [N-(4-(4-methylpiperazin-1-yl)phenyl)-6-phenylquinolin-4-amine]	–	PRAK
COc1ccc(OC)c(-c2ccc3nccc(Nc4ccc(N5CCN(C)CC5)cc4)c3c2)c1 [6-(2,5-dimethoxyphenyl)-N-(4-(4-methylpiperazin-1-yl)phenyl)quinolin-4-amine]	MAPKAPK2	PRAK
N#CCCN1CCN(c2ccc(Nc3ccnc4ccc(-c5ccccc5)cc34)cc2)CC1 [3-(4-(4-(6-phenylquinolin-4-ylamino)phenyl)piperazin-1-yl)propanenitrile]	MAPKAPK2	PRAK
N#Cc1ccc(-c2ccc3nccc(Nc4ccc(N5CCN(CC(=O)O)CC5)cc4)c3c2)cc1 [2-(4-(4-(6-(4-cyanophenyl)quinolin-4-ylamino)phenyl)piperazin-1-yl)acetic acid]	MAPKAPK2	PRAK
CCOc1ccc(-c2ccc3nccc(Nc4ccc(N5CCN(C)CC5)cc4)c3c2)cc1 [6-(4-ethoxyphenyl)-N-(4-(4-methylpiperazin-1-yl)phenyl)quinolin-4-amine]	MAPKAPK2	PRAK
COc1ccc(F)cc1-c1ccc2nccc(Nc3ccc(N4CCN(C)CC4)cc3)c2c1 [6-(5-fluoro-2-methoxyphenyl)-N-(4-(4-methylpiperazin-1-yl)phenyl)quinolin-4-amine]	MAPKAPK2	PRAK
CN1CCN(c2ccc(Nc3ccnc4ccc(-c5ccccc5F)cc34)cc2)CC1 [6-(2-fluorophenyl)-N-(4-(4-methylpiperazin-1-yl)phenyl)quinolin-4-amine]	MAPKAPK2	PRAK
COc1ccc(C(C)C)cc1-c1ccc2nccc(Nc3ccc(N4CCN(C)CC4)cc3)c2c1 [6-(5-isopropyl-2-methoxyphenyl)-N-(4-(4-methylpiperazin-1-yl)phenyl)quinolin-4-amine]	MAPKAPK2	PRAK
Cc1cc(F)ccc1-c1ccc2nccc(Nc3ccc(N4CCN(C)CC4)cc3)c2c1 [6-(4-fluoro-2-methylphenyl)-N-(4-(4-methylpiperazin-1-yl)phenyl)quinolin-4-amine]	MAPKAPK2	PRAK
CN1CCN(c2ccc(Nc3ccnc4ccc(-c5c(F)cccc5F)cc34)cc2)CC1 [6-(2,6-difluorophenyl)-N-(4-(4-methylpiperazin-1-yl)phenyl)quinolin-4-amine]	MAPKAPK2	PRAK
CN1CCN(c2ccc(Nc3ccnc4ccc(-c5ccc([S+](C)[O-])cc5)cc34)cc2)CC1 (stereo not drawn) [N-(4-(4-methylpiperazin-1-yl)phenyl)-6-(4-(methylsulfinyl)phenyl)quinolin-4-amine]	MAPKAPK2	PRAK
N#CCCN1CCN(c2ccc(Nc3ccnc4ccc(-c5ccc(C#N)cc5)cc34)cc2)CC1 [4-(4-(4-(4-(2-cyanoethyl)piperazin-1-yl)phenylamino)quinolin-6-yl)benzonitrile]	MAPKAPK2	PRAK
